Experimental findings from patent publication US20240239861A1, “GLUCAGON-RECEPTOR SELECTIVE POLYPEPTIDES AND METHODS OF USE THEREOF” (i2O Therapeutics, Inc., priority 2016, published 2024) are described below.

Where a SMILES comes first, the peptide text is derived from it. [ ]: non-standard residue; d: D form. Aib = CC(C)(N)C(=O)O

One test has as its target human GCGR (Homo sapiens, UniProt P47871). The test can be described thus: Peptide-receptor mediated cAMP accumulation (LANCE Ultra cAMP) in CHO-K1 cells transfected with human GCGR. It counts as cell-based. The following applies: FIG. 1A. A general note: Cyclic AMP is a second messenger, typically raised through Gs and lowered through Gi signalling.
The target in another test is human GLP-1R (Homo sapiens, UniProt P43220). The test can be described thus: Peptide-receptor mediated cAMP accumulation (LANCE Ultra cAMP) in CHO-K1 cells transfected with human GLP-1R. The conditions noted are these: hGLP1 pEC50 (cAMP mean (n = 3): 11 point curve starting at 1 nM, Table 3). It counts as cell-based.
Chain of human GLP-1R (P43220 24-463): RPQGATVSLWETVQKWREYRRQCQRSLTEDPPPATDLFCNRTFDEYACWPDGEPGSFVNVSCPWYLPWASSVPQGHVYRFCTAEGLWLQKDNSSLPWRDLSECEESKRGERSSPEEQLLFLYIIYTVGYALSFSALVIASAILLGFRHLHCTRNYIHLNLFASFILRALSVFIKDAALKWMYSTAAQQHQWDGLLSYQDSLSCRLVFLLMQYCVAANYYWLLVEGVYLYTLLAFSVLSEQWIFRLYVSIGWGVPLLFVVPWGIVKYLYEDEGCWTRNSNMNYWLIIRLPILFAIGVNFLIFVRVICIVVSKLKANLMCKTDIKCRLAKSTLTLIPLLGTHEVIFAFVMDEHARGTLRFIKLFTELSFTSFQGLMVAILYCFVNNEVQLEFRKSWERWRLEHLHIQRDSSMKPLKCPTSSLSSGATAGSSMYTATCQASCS

For the molecule “GLP-1 (7-37): form of glucagon-like peptide-1 used as comparator in the receptor activation profiles of FIG. 1 [reference compound]”, in the test with human GCGR, the “activation profile at the human glucagon receptor (GCGR)” value is recorded as “much lower potency”. For orientation: EC50 means the concentration giving half of the maximal effect. `CC(C)C[C@H](NC(=O)[C@H](Cc1ccc(O)cc1)NC(=O)[C@H](CCCCN)NC(=O)[C@H](CO)NC(=O)[C@H](Cc1ccc(O)cc1)NC(=O)[C@H](CC(=O)O)NC(=O)[C@H](CO)NC(=O)[C@@H](NC(=O)[C@H](Cc1ccccc1)NC(=O)[C@@H](NC(=O)CNC(=O)[C@H](Cc1c[nH]cn1)NC(=O)[C@H](CO)NC(=O)[C@@H](N)Cc1ccc(O)cc1)[C@@H](C)O)[C@@H](C)O)C(=O)N[C@@H](CC(=O)O)C(=O)NC(C)(C)C(=O)N[C@@H](CCCCN)C(=O)N[C@@H](CCCNC(=N)N)C(=O)N[C@@H](C)C(=O)N[C@@H](CCC(N)=O)C(=O)N[C@@H](CCC(=O)O)C(=O)N[C@@H](Cc1ccccc1)C(=O)N[C@H](C(=O)NC(C)(C)C(=O)N[C@@H](Cc1c[nH]c2ccccc12)C(=O)N[C@@H](CC(C)C)C(=O)N[C@@H](CCC(=O)O)C(=O)N[C@@H](CC(=O)O)C(=O)N[C@@H](CCC(=O)O)C(=O)N1CCC[C@H]1C(=O)N[C@@H](CO)C(=O)N[C@@H](CO)C(=O)NCC(=O)N[C@@H](CCCCN)C(=O)N1CCC[C@H]1C(=O)N1CCC[C@H]1C(=O)N1CCC[C@H]1C(=O)N[C@@H](CO)C(N)=O)C(C)C` [Compound A85] (H-YSHGTFTSDYSKYLD[Aib]KRAQEFV[Aib]WLEDEPSSGKPPPS-NH2; N-terminus assumed): the EC50 on human GLP-1R is more than 1 nM. The same measure, in the same setting: with `CC[C@H](C)[C@H](NC(=O)[C@@H]1CCCN1C(=O)[C@@H]1CCCN1C(=O)[C@H](CCCCN)NC(=O)[C@H](CC(N)=O)NC(=O)[C@H](CCCNC(=N)N)NC(=O)[C@H](CCCCN)NC(=O)[C@H](CCC(=O)O)NC(=O)[C@H](CC(=O)O)NC(=O)[C@H](CCC(=O)O)NC(=O)[C@H](CC(C)C)NC(=O)[C@H](Cc1c[nH]c2ccccc12)NC(=O)C(C)(C)NC(=O)[C@@H](NC(=O)[C@H](Cc1ccccc1)NC(=O)[C@H](CCC(=O)O)NC(=O)[C@H](CCC(N)=O)NC(=O)[C@H](C)NC(=O)[C@H](CCCNC(=N)N)NC(=O)[C@H](CCCCN)NC(=O)C(C)(C)NC(=O)[C@H](CC(=O)O)NC(=O)[C@H](CC(C)C)NC(=O)[C@H](Cc1ccc(O)cc1)NC(=O)[C@H](CCCCN)NC(=O)[C@H](CO)NC(=O)[C@H](Cc1ccc(O)cc1)NC(=O)[C@H](CC(=O)O)NC(=O)[C@H](CO)NC(=O)[C@@H](NC(=O)[C@H](Cc1ccccc1)NC(=O)[C@@H](NC(=O)CNC(=O)[C@H](Cc1c[nH]cn1)NC(=O)[C@H](CO)NC(=O)[C@@H](N)Cc1ccc(O)cc1)[C@@H](C)O)[C@@H](C)O)C(C)C)C(=O)N[C@@H](C)C(=O)O` [Compound A46] (H-YSHGTFTSDYSKYLD[Aib]KRAQEFV[Aib]WLEDEKRNKPPIA-OH; N-terminus assumed) the figure was more than 1 nM; with `CC(C)C[C@H](NC(=O)[C@H](Cc1ccc(O)cc1)NC(=O)[C@H](CCCCN)NC(=O)[C@H](CO)NC(=O)[C@H](Cc1ccc(O)cc1)NC(=O)[C@H](CC(=O)O)NC(=O)[C@H](CO)NC(=O)[C@@H](NC(=O)[C@H](Cc1ccccc1)NC(=O)[C@@H](NC(=O)CNC(=O)[C@H](CCC(N)=O)NC(=O)[C@H](CO)NC(=O)[C@@H](N)Cc1ccc(O)cc1)[C@@H](C)O)[C@@H](C)O)C(=O)N[C@@H](CC(=O)O)C(=O)NC(C)(C)C(=O)N[C@@H](CCCCN)C(=O)N[C@@H](C)C(=O)N[C@@H](C)C(=O)N[C@@H](CCC(N)=O)C(=O)N[C@@H](CCC(=O)O)C(=O)N[C@@H](Cc1ccccc1)C(=O)N[C@H](C(=O)NC(C)(C)C(=O)N[C@@H](Cc1c[nH]c2ccccc12)C(=O)N[C@@H](CC(C)C)C(=O)N[C@@H](CCC(=O)O)C(=O)N[C@@H](CC(=O)O)C(=O)N[C@@H](CCC(=O)O)C(=O)N1CCC[C@H]1C(=O)N[C@@H](CO)C(=O)N[C@@H](CO)C(=O)NCC(=O)N[C@@H](CCCCN)C(=O)N1CCC[C@H]1C(=O)N1CCC[C@H]1C(=O)N1CCC[C@H]1C(=O)N[C@@H](CO)C(=O)O)C(C)C` [Compound A96] (H-YSQGTFTSDYSKYLD[Aib]KAAQEFV[Aib]WLEDEPSSGKPPPS-OH; N-terminus assumed), more than 1 nM. Still for that read-out and setting: with `CC(C)C[C@H](NC(=O)[C@H](Cc1ccc(O)cc1)NC(=O)[C@H](CCCCN)NC(=O)[C@H](CO)NC(=O)[C@H](Cc1ccc(O)cc1)NC(=O)[C@H](CC(=O)O)NC(=O)[C@H](CO)NC(=O)[C@@H](NC(=O)[C@H](Cc1ccccc1)NC(=O)[C@@H](NC(=O)CNC(=O)[C@H](Cc1c[nH]cn1)NC(=O)[C@H](CO)NC(=O)[C@@H](N)Cc1ccc(O)cc1)[C@@H](C)O)[C@@H](C)O)C(=O)N[C@@H](CC(=O)O)C(=O)NC(C)(C)C(=O)N[C@@H](CCCCN)C(=O)N[C@@H](CCCNC(=N)N)C(=O)N[C@@H](C)C(=O)N[C@@H](CCC(N)=O)C(=O)N[C@@H](CCC(=O)O)C(=O)N[C@@H](Cc1ccccc1)C(=O)N[C@H](C(=O)NC(C)(C)C(=O)N[C@@H](Cc1c[nH]c2ccccc12)C(=O)N[C@@H](CC(C)C)C(=O)N[C@@H](CCC(=O)O)C(=O)N[C@@H](CC(=O)O)C(=O)N[C@@H](CCC(=O)O)C(=O)N1CCC[C@H]1C(=O)N[C@@H](CO)C(=O)N[C@@H](CO)C(=O)N[C@@H](CCCCN)C(=O)NCC(=O)N[C@@H](C)C(=O)N1CCC[C@H]1C(=O)N1CCC[C@H]1C(=O)N1CCC[C@H]1C(=O)N[C@@H](CO)C(=O)O)C(C)C` [Compound A24] (H-YSHGTFTSDYSKYLD[Aib]KRAQEFV[Aib]WLEDEPSSKGAPPPS-OH) the figure was more than 1 nM; with `CC(C)C[C@H](NC(=O)[C@H](Cc1ccc(O)cc1)NC(=O)[C@H](CCCCN)NC(=O)[C@H](CO)NC(=O)[C@H](Cc1ccc(O)cc1)NC(=O)[C@H](CC(=O)O)NC(=O)[C@H](CO)NC(=O)[C@@H](NC(=O)[C@H](Cc1ccccc1)NC(=O)[C@@H](NC(=O)CNC(=O)[C@H](Cc1c[nH]cn1)NC(=O)[C@H](CO)NC(=O)[C@@H](N)Cc1ccc(O)cc1)[C@@H](C)O)[C@@H](C)O)C(=O)N[C@@H](CC(=O)O)C(=O)NC(C)(C)C(=O)N[C@@H](CCCCN)C(=O)N[C@@H](CCCNC(=N)N)C(=O)N[C@@H](C)C(=O)N[C@@H](CCC(N)=O)C(=O)N[C@@H](CCC(=O)O)C(=O)N[C@@H](Cc1ccccc1)C(=O)N[C@H](C(=O)NC(C)(C)C(=O)N[C@@H](Cc1c[nH]c2ccccc12)C(=O)N[C@@H](CC(C)C)C(=O)N[C@@H](CCC(=O)O)C(=O)N[C@@H](CC(=O)O)C(=O)N[C@@H](CCC(=O)O)C(=O)N1CCC[C@H]1C(=O)N[C@@H](CCCCN)C(=O)N[C@@H](CO)C(=O)N[C@@H](CCCCN)C(=O)N[C@@H](CO)C(=O)N1CCC[C@H]1C(=O)N1CCC[C@H]1C(=O)N1CCC[C@H]1C(=O)N[C@@H](CO)C(N)=O)C(C)C` [Compound A66] (H-YSHGTFTSDYSKYLD[Aib]KRAQEFV[Aib]WLEDEPKSKSPPPS-NH2; N-terminus assumed), more than 1 nM. `CC(C)C[C@H](NC(=O)[C@H](Cc1ccc(O)cc1)NC(=O)[C@H](CCCCN)NC(=O)[C@H](CO)NC(=O)[C@H](Cc1ccc(O)cc1)NC(=O)[C@H](CC(=O)O)NC(=O)[C@H](CO)NC(=O)[C@@H](NC(=O)[C@H](Cc1ccccc1)NC(=O)[C@@H](NC(=O)CNC(=O)[C@H](Cc1c[nH]cn1)NC(=O)[C@H](CO)NC(=O)[C@@H](N)Cc1ccc(O)cc1)[C@@H](C)O)[C@@H](C)O)C(=O)N[C@@H](CC(=O)O)C(=O)NC(C)(C)C(=O)N[C@@H](CCCCN)C(=O)N[C@@H](CCCNC(=N)N)C(=O)N[C@@H](C)C(=O)N[C@@H](CCC(N)=O)C(=O)N[C@@H](CCC(=O)O)C(=O)N[C@@H](Cc1ccccc1)C(=O)N[C@H](C(=O)NC(C)(C)C(=O)N[C@@H](Cc1c[nH]c2ccccc12)C(=O)N[C@@H](CC(C)C)C(=O)N[C@@H](CCC(=O)O)C(=O)N[C@@H](CC(=O)O)C(=O)N[C@@H](CCC(=O)O)C(=O)N1CCC[C@H]1C(=O)N[C@@H](CO)C(=O)N[C@@H](CO)C(=O)N[C@@H](CCCCN)C(=O)N[C@@H](CCC(N)=O)C(=O)N1CCC[C@H]1C(=O)N1CCC[C@H]1C(=O)N1CCC[C@H]1C(=O)N[C@@H](CO)C(=O)O)C(C)C` [Compound A59] (H-YSHGTFTSDYSKYLD[Aib]KRAQEFV[Aib]WLEDEPSSKQPPPS-OH; N-terminus assumed) showed an EC50 on human GLP-1R of more than 1 nM. Regarding `CC(C)C[C@H](NC(=O)[C@H](CC(=O)O)NC(=O)[C@H](CC(C)C)NC(=O)[C@H](Cc1ccc(O)cc1)NC(=O)[C@H](CCCCN)NC(=O)[C@H](CO)NC(=O)[C@H](Cc1ccc(O)cc1)NC(=O)[C@H](CC(=O)O)NC(=O)[C@H](CO)NC(=O)[C@@H](NC(=O)[C@H](Cc1ccccc1)NC(=O)[C@@H](NC(=O)CNC(=O)[C@H](Cc1c[nH]cn1)NC(=O)[C@H](CO)NC(=O)[C@@H](N)Cc1ccc(O)cc1)[C@@H](C)O)[C@@H](C)O)C(=O)N[C@@H](CCCCN)C(=O)N[C@@H](CCCNC(=N)N)C(=O)N[C@@H](C)C(=O)N[C@@H](CCC(N)=O)C(=O)N[C@@H](CCC(=O)O)C(=O)N[C@@H](Cc1ccccc1)C(=O)N[C@H](C(=O)NC(C)(C)C(=O)N[C@@H](Cc1c[nH]c2ccccc12)C(=O)N[C@@H](CC(C)C)C(=O)N[C@@H](CCC(=O)O)C(=O)N[C@@H](CC(=O)O)C(=O)N[C@@H](CCC(=O)O)C(=O)N1CCC[C@H]1C(=O)N[C@@H](CO)C(=O)N[C@@H](CO)C(=O)NCC(=O)N[C@@H](C)C(=O)N1CCC[C@H]1C(=O)N1CCC[C@H]1C(=O)N1CCC[C@H]1C(=O)N[C@@H](CO)C(=O)O)C(C)C` [Compound A51] (H-YSHGTFTSDYSKYLDLKRAQEFV[Aib]WLEDEPSSGAPPPS-OH; N-terminus assumed), on human GLP-1R, the 50% effective concentration (EC50) was more than 1 nM.
